Laboratory results: patent EP2067861A1, “Animals of the rattus genus wherein msh6 expression is functionally decreased and methods for the generation of specific mutants therefrom” (Koninklijke Nederlandse Akademie van Wetenschappen, priority 2007, dated 2009)

Key:
wild-type males = test: Survival of ENU treated wild-type males (previous studies); type: in vivo, rat; conditions: unpublished data
Text: The efficiency of ENU is dependent of the dose, reflected by a higher mutagenicity after three weekly administrations of low doses of the mutagen compared to a single high-dose injection (Justice et al. (2000) Mamm Genome 11, 484-8). Furthermore it has been shown that higher ENU concentrations increase the mutation frequency (Smits et al. (2004) Pharmacogenet Genomics 16, 159-69; Smits and Cuppen (2006) Trends Genet. 22, 232-40). To determine the optimal ENU concentration we performed an ENU dose-response experiment and determined the fertility of the founders. At 12 weeks of age msh6^-/- males were treated with 3 weekly doses of different concentrations of the mutagen. Fertility was determined after a full cycle of spermatogenesis (± 10 weeks) by breeding and/or histological analysis of the testes. At concentrations of 35, 30 and 25 mg/kg, respectively 1/8, 5/8 and 4/6 males were fertile (Table 5). Compared to earlier studies, where at 40 and 35 mg/kg ENU respectively 6/10 and 10/10 rats are fertile (Smits and Cuppen (2006) Trends Genet. 22, 232-40), this is a considerable decrease. It is known that MSH6 deficiency reduces lifespan in both rats (van Boxtel et al. (2007) submitted) and mice (Edelmann (1997) Cell 91, 467-77) as a result of tumor development. MSH6 deficiency increased ENU sensitivity not only in fertility, but also in survival. […]

msh6^-/- male rats = test: Survival of ENU treated msh6^-/- male rats; type: in vivo, rat; conditions: for # Surviving founders: 3 x 30 mg/kg bodyweight ENU
Text: • Figure 1. Characteristics of the msh6^-/- rat. (A) Genomic organization of the msh6 gene in rats. The arrow marks the position of the ENU-induced mutation that results in a premature stop codon. The sequence trace indicates the T to A […] in a heterozygous rat. (B) Western blot (WB) of testes and cultured rat embryonic fibroblast (CREF) lysates stained with antibodies against human MSH6 (160 kDa). Lysate of human embryonic kidney (HEK) cells was loaded as a positive control. MSH6 protein is completely absent in msh6^-/- testes and CREF. Coomassie brilliant blue staining (CBB) was used as a control for protein loading. • Figure 2. Microsatellite instability in the germ line. (A) A mononucleotide repeat of 20 repetitive subunits (G)20 was analyzed in a cross between a msh6^-/- father and a wild type mother and their msh6^+/- offspring. The red line indicates the size of the most prominent amplification product in both parents. In the DNA sample of the offspring one of the alleles has lost one repetitive subunit. (B) Fragment analysis of a dinucleotide repeat (CA)36 that is polymorphic between the founder animals. […] The orange peaks represent the size marker that was loaded to determine the size of the PCR product. • Figure 3. Survival of the msh6^-/- rats. The time the rats became moribund is recorded. Red line, msh6^-/- rats (n=17); black line, control group (n=100, Source Harlan). • Figure 4. Tumors observed in the msh6^-/- rat. (A) Section of a mediastinal lymphoblastic lymphoma of a msh6^-/- male rat stained with HE. (B) A higher magnification of the lymphoblastic lymphoma. (C) Section of a leiomyosarcoma of the endometrium stained with HE. (D) Section of an endometrial carcinoma stained with HE. (E) A higher magnification of the endometrial carcinoma. (F) A section of a squamous cell carcinoma in the stomach of a msh6^-/- female rat stained with HE. (G) Section of a fibroadenoma of a msh6^-/- male rat stained with HE. (H) Section of a liver with lymphoblastic lymphoma leukemia stained with HE. (I) Section of a testicle containing a Leydig cell tumor stained with HE. • Figure 5. Survival of msh6^-/- male rats after treatment of different concentrations of ENU compared to untreated msh6^-/- male rats. Time points of the last ENU injection and the beginning of the mutation discovery screen are indicated. • Figure 6. ENU-induced target-selected knockout protocol. (A) Msh6^-/- males were mutagenized and crossed with wild-type Wistar females. At two weeks of age tissue samples from the F1 progeny were taken and DNA was isolated. (B) For every DNA samples 768 pre-selected amplicons were PCR amplified and dideoxy sequenced. (C) Sequence traces for the same amplicon of the different animals was aligned, processed with PolyPhred (Nickerson et al, (1997) Nucleic Acids Res 25, 2745-51) and analyzed using in house developed software. (D) ENU-induced de novo mutations were verified by independent PCR amplification and sequencing and pups carrying interesting mutations were weaned. The whole procedure from taking tissue samples to weaning interesting mutants takes 1 week, indicated in the centre of the figure. • Figure 7. ENU-induced mutation spectrum in MSH6 deficient background compared to MMR proficient animals. […] (B) The change of introducing a premature stop codon with ENU-induced MSH6 proficient and deficient mutation spectra. For the calculations the sequences of the 768 representative exon-containing amplicons were used (* indicates significance, p < 0.05).
All experiments were approved by the Animal Care Committee of the Royal Dutch Academy of Science according to the Dutch legal ethical guidelines. Experiments were designed to minimize the number of required animals and their suffering. Male MSH6 knockout rats (Msh6^1Hubr) of 12 weeks of age were given three weekly intraperitoneal injections of 25, 30 and 35 mg/kg bodyweight ENU. […]

Control = Control 3 x 40 mg/kg ENU, cited from earlier work
[1] = 362 pups, 37,27 x 10^6 bases screened

SMILES: CCN(N=O)C(N)=O [ENU, N-ethyl-N-nitrosourea]
- survived till 1,5 years of age (wild-type males; 35 mg/kg bodyweight ENU): 9 out of 10
- survived till 1,5 years of age (wild-type males; 40 mg/kg bodyweight ENU): 10 out of 10
- # Surviving founders (msh6^-/- male rats; 17 - 19 weeks after last injection): 5/5
- # Surviving founders (msh6^-/- male rats; 20 - 22 weeks after last injection): 5/5
- # Surviving founders (msh6^-/- male rats; 23 - 25 weeks after last injection): 5/5
- # Surviving founders (msh6^-/- male rats; 26 - 29 weeks after last injection): 3/5
- age after which no male was alive (msh6^-/- male rats; ENU treated msh6^-/- males): ≤ 50 weeks
- average mean of survival (msh6^-/- male rats; ENU treated msh6^-/- males (untreated msh6^-/- rats: median survival 14 months)): 37 ± 3 weeks
- average mean of survival (msh6^-/- male rats; ENU treated msh6^-/- males, same value restated in months): ~8 months
- # Surviving founders (msh6^-/- male rats; fertile msh6^-/- males, 14 - 16 weeks after last injection): 5/5
- # Mutations - nonsense (Control; [1]): 0
- # Mutations - total (Control; [1]): 30
- # Mutations - missense (Control): 17
- # Mutations - non-coding (Control): 6
- # Mutations - silent (Control): 7
- Mutation Frequencies (Control; highest ENU-induced mutation frequency in rats): 8.05 x 10^-7
